Results reported in patent US8580803B2, “Substituted pyrrolo-aminopyrimidine compounds” (ArQule, Inc., priority 2009, dated 2013).

Assays:
AKT1 = AKT1 (Homo sapiens, UniProt P31749); assay: AKT Kinase Activity Assay (AlphaScreen, crosstide); settings: Average of Akt1 biochemical assay
Procedure: AKT1 activity was assayed using the GSK3-derived biotinylated peptide substrate, crosstide (biotin-GRPRTSSFAEG), and AlphaScreen™ (Amplified Luminescent Proximity Homogeneous Assay) technology. AKT1 activation was achieved by the addition of the activating kinases PDK1 and MAPKAPK2, lipid vesicles, and ATP. The extent of peptide phosphorylation was determined using a phospho-AKT substrate antibody and acceptor beads conjugated to Protein A and donor beads conjugated to streptavidin that bind to the biotin on the peptide. Excitation of the donor beads converted ambient oxygen to excited singlet oxygen which, when in close proximity to acceptor beads, reacted with acceptor beads resulting in signal amplification.
Test inhibitors and controls (Abbott inhibitor, Merck pre-clinical inhibitor, and Merck clinical inhibitor) were prepared in 10% DMSO at 10-fold the desired final concentration, and added to each well of a reaction plate (Corning 96-well half-area solid white nonbinding surface plate) in a volume of 2.5 μL. […] After a 20 minute pre-incubation at room temperature, the kinase reaction was initiated by the addition of 5 μL of an activation mixture diluted in assay buffer containing biotinylated crosstide, PDK1, MAPKAPK2, DOPS/DOPC, PtdIns(3,4,5)P3, and ATP for final concentrations of 60 nM biotinylated crosstide, 0.1 nM PDK1, 0.7 nM MK2, 5.5 μM DOPS, 5.5 μM DOPC, 0.5 μM PtdIns(3,4,5)P3, and 50 μM ATP. The plates were incubated for 30 minutes at room temperature, and then stopped in the dark by the addition of 10 μL stop/detection mixture prepared in assay buffer containing EDTA, AlphaScreen™ Streptavidin Donor and Protein A Acceptor beads, and phospho-AKT substrate antibody for final concentrations of 10 mM EDTA, 500 ng/well of both AlphaScreen™ Streptavidin Donor beads and Protein A Acceptor beads, and phospho-AKT substrate antibody at a final dilution of 1:350. Assay plates were incubated for 90 minutes at room temperature in the dark, and the plates were read on a Perkin Elmer Envision Multilabel plate reader ([…]).

ACK1 (110-489) = target: T1, ACK1 (110-489) (Homo sapiens, UniProt Q07912); assay: ACK1 Activity Assay (AlphaScreen, PYK2-derived peptide); format: biochemical
T1 construct: ACK1 110-489 (12.5 μl) were added to each well
Procedure: The extent of peptide phosphorylation was determined by using acceptor beads conjugated to phosphotyrosine antibody that recognizes the phosphorylated peptide and donor beads conjugated to streptavidin that binds to the biotin on the peptide. Excitation of the donor beads converted ambient oxygen to excited singlet oxygen which when in close proximity to acceptor beads, reacted with acceptor beads where the signal was amplified.
Test inhibitors and controls (N-(2,6-dimethylphenyl)-4-(2-ethoxyphenoxy)-2-[(4-piperazin-1-ylphenyl)amino]pyrimidine-5-carboxamide) were prepared in 10% DMSO at 10× the desired final concentration. […] After a 20-min incubation at room temperature, the kinase reaction was initiated by the addition of 10 μl of PYK2/ATP mixture. […] The plates were incubated for 60 min at room temperature. The reaction was stopped by the addition of 10 μl stop/detection mixture which contains EDTA (final concentration is 10 mM), AlphaScreen™ Streptavidin Donor beads (final concentration is 500 ng/well) and AlphaScreen™ Phospho-tyrosine (P-Tyr-100) Acceptor beads (final concentration is 500 ng/well) were diluted in assay buffer. This reagent addition step was performed in the dark because the AlphaScreen™ beads are light-sensitive. The plate was incubated for 60 min at room temperature in the dark and the plates were read on the Perkin Elmer Envision Multilabel plate reader ([…]).

T1 sequence (Q07912 110-489, species assumed): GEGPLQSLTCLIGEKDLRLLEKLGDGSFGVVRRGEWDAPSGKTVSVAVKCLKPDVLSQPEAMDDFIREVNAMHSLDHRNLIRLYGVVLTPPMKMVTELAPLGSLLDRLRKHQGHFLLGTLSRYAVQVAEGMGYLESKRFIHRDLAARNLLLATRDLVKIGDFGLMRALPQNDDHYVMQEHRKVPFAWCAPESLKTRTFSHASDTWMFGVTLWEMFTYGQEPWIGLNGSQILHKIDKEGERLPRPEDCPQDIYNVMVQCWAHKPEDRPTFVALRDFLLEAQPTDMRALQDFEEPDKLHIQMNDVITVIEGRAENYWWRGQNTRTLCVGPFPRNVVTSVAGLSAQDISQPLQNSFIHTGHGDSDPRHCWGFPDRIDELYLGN
Sequence of AKT1 (P31749 whole entry): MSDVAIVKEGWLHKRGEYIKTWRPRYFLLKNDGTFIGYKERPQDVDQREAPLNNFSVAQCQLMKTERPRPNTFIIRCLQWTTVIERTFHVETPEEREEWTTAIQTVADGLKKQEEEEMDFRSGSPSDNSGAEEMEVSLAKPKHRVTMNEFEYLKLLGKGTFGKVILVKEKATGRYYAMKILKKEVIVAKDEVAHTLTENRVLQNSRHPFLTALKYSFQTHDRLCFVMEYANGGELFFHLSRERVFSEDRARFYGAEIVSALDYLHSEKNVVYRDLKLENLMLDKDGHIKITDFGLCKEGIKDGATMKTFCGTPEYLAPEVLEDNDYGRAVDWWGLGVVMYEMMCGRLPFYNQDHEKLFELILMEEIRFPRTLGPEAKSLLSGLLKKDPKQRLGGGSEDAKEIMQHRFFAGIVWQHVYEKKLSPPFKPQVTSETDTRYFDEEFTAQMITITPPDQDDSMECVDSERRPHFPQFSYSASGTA

IC50 (AKT1) | IC50 (ACK1 (110-489)) | melting point | Structure (SMILES)
1400 nM |  |  | O=C(Nc1ccccc1)c1cccc(Nc2ncnc3[nH]cc(C(=O)c4ccccc4)c23)c1 [drawing 239, 3-[(5-benzoyl-7H-pyrrolo[2,3-d]pyrimidin-4-yl)amino]-N-phenylbenzamide]
1440 nM | 592 nM |  | CN1CCC(NC(=O)c2cccc(Nc3ncnc4[nH]cc(C(=O)c5ccccc5)c34)c2)CC1 [3-[(5-benzoyl-7H-pyrrolo[2,3-d]pyrimidin-4-yl)amino]-N-(1-methylpiperidin-4-yl)benzamide]
3000 nM | 2190 nM |  | O=C(O)c1cccc(Nc2ncnc3[nH]cc(C(=O)c4ccccc4)c23)c1 [3-[(5-benzo-7H-pyrrolo[2,3-d]pyrimidin-4-yl)amino]benzoic acid]
5120 nM |  |  | CNC(=O)c1cccc(Nc2ncnc3[nH]cc(C(=O)c4ccccc4)c23)c1 [3-((5-benzoyl-7H-pyrrolo[2,3-d]pyrimidin-4-yl)amino)-N-methylbenzamide]
1250 nM | 415 nM |  | Nc1cccc(Nc2ncnc3[nH]cc(C(=O)c4ccccc4)c23)c1 [drawing 248, {4-[(3-aminophenyl)amino]-7H-pyrrolo[2,3-d]pyrimidin-5-yl}(phenyl)methanone]
 |  | > 300 °C | O=C(Nc1ccccc1)c1cccc(Nc2ncnc3[nH]cc(C(=O)c4ccccc4)c23)c1
 |  | > 300 °C | CNC(=O)c1cccc(Nc2ncnc3[nH]cc(C(=O)c4ccccc4C)c23)c1
2170 nM | 3870 nM |  | CC(=O)Nc1cccc(Nc2ncnc3[nH]cc(C(=O)c4ccccc4)c23)c1 [N-{3-[(5-benzoyl-7H-pyrrolo[2,3-d]pyrimidin-4-yl)amino]phenyl}acetamide]
674 nM | 486 nM |  | CN(C)CCCNC(=O)c1cccc(Nc2ncnc3[nH]cc(C(=O)c4ccccc4)c23)c1 [3-[(5-benzoyl-7H-pyrrolo[2,3-d]pyrimidin-4-yl)amino]-N-[3-(dimethylamino)propyl]benzamide]
 |  | > 300 °C | CNC(=O)c1cccc(Nc2ncnc3[nH]cc(C(=O)c4cccc5ccccc45)c23)c1
 |  | 280 to 282 °C | Nc1cccc(Nc2ncnc3[nH]cc(C(=O)c4ccccc4)c23)c1
 |  | > 300 °C | CNC(=O)c1cccc(Nc2ncnc3[nH]cc(C(=O)c4ccc(Cl)cc4)c23)c1
 |  | > 300 °C | CNC(=O)c1cccc(Nc2ncnc3[nH]cc(C(=O)c4cccc(F)c4)c23)c1

Further lines, the compound ahead of its results:

Structure (SMILES) | IC50 (AKT1) | IC50 (ACK1 (110-489)) | melting point
Cn1cc(CC(=O)Nc2cccc(Nc3ncnc4[nH]cc(C(=O)c5ccccc5)c34)c2)c2ccccc21 [2-(1-methyl-1H-indol-3-yl)-N-(3-{[5-(phenylcarbonyl)-7H-pyrrolo[2,3-d]pyrimidin-4-yl]amino}phenyl)acetamide] | 3090 nM |  | 
O=C(NCCCCN1CCCC1)c1cccc(Nc2ncnc3[nH]cc(C(=O)c4ccccc4)c23)c1 [3-[(5-benzoyl-7H-pyrrolo[2,3-d]pyrimidin-4-yl)amino]-N-(4-pyrrolidin-1-ylbutyl)benzamide] | 676 nM | 2170 nM | 
Nc1ccc(Nc2ncnc3[nH]cc(C(=O)c4ccccc4)c23)cc1 [{4-[(4-aminophenyl)amino]-7H-pyrrolo[2,3-d]pyrimidin-5-yl}(phenyl)methanone] | 2570 nM | 338 nM | 
CC(=O)Nc1cccc(Nc2ncnc3c2c(C(=O)c2ccccc2)cn3C)c1 [drawing 273, N-(3-{[7-methyl-5-(phenylcarbonyl)-7H-pyrrolo[2,3-d]pyrimidin-4-yl]amino}phenyl)acetamide] | 2510 nM |  | 
O=C(c1ccccc1)c1c[nH]c2ncnc(Nc3cccc(NC(=O)C4CCCC4)c3)c12 [N-(3-{[5-(phenylcarbonyl)-7H-pyrrolo[2,3-d]pyrimidin-4-yl]amino}phenyl) cyclopentanecarboxamide] | 7010 nM | 19000 nM | 
NCc1cccc(Nc2ncnc3[nH]cc(C(=O)c4ccccc4)c23)c1 [drawing 278, (4-{[3-(aminomethyl)phenyl]amino}-7H-pyrrolo[2,3-d]pyrimidin-5-yl)(phenyl) methanone] | 186 nM |  | 
CN(C)CC(=O)Nc1cccc(Nc2ncnc3[nH]cc(C(=O)c4ccccc4)c23)c1 [N,N-dimethyl-N-(3-{[5-(phenylcarbonyl)-7H-pyrrolo[2,3-d]pyrimidin-4-yl]amino}phenyl)glycinamide] | 1120 nM | 672 nM | 
O=C(NCCCN1CCCC1)c1cccc(Nc2ncnc3[nH]cc(C(=O)c4ccccc4)c23)c1 [3-[(5-benzoyl-7H-pyrrolo[2,3-d]pyrimidin-4-yl)amino]-N-(3-pyrrolidin-1-ylpropyl)benzamide] | 899 nM | 1200 nM | 
CC(=O)NCC(=O)Nc1cc(Cl)cc(Nc2ncnc3[nH]cc(C(=O)c4ccccc4)c23)c1 |  |  | > 300 °C
O=C(Nc1cccc(Nc2ncnc3[nH]cc(C(=O)c4ccccc4)c23)c1)c1ccccc1 |  |  | > 300 °C
Nc1cc(Cl)cc(Nc2ncnc3[nH]cc(C(=O)c4ccccc4)c23)c1 |  |  | > 300 °C
O=C(CCc1cccnc1)Nc1cccc(Nc2ncnc3[nH]cc(C(=O)c4ccccc4)c23)c1 [N-(3-{[5-(phenylcarbonyl)-7H-pyrrolo[2,3-d]pyrimidin-4-yl]amino}phenyl)-3-pyridin-3-ylpropanamide] | 288 nM | 1070 nM | 
CC(C)(C)OC(=O)NCc1cccc(Nc2ncnc3[nH]cc(C(=O)c4ccccc4)c23)c1 |  |  | 210 to 212 °C
O=C(NCCCN1CCCCC1)c1cccc(Nc2ncnc3[nH]cc(C(=O)c4ccccc4)c23)c1 |  |  | > 300 °C
CC(=O)NCC(=O)Nc1cccc(Nc2ncnc3[nH]cc(C(=O)c4ccccc4)c23)c1 [2-acetamido-N-(3-((5-benzoyl-7H-pyrrolo[2,3-d]pyrimidin-4-yl)amino)phenyl)acetamide] | 94.9 nM | 666 nM | 
O=C(Cc1cncc(Br)c1)Nc1cccc(Nc2ncnc3[nH]cc(C(=O)c4ccccc4)c23)c1 |  |  | > 300 °C
NCc1ccc(Nc2ncnc3[nH]cc(C(=O)c4ccccc4)c23)cc1 |  |  | 255 to 257 °C
O=C(Nc1cccc(Nc2ncnc3[nH]cc(C(=O)c4ccccc4)c23)c1)c1ccc(Cl)cc1 [4-chloro-N-(3-{[5-(phenylcarbonyl)-7H-pyrrolo[2,3-d]pyrimidin-4-yl]amino}phenyl)benzamide] | 5130 nM | 15700 nM | 
CC(=O)Nc1ccc(Nc2ncnc3[nH]cc(C(=O)c4ccccc4)c23)cc1 |  |  | 263 to 264 °C
O=C(Nc1ccccc1)Nc1cccc(Nc2ncnc3[nH]cc(C(=O)c4ccccc4)c23)c1 |  |  | > 300 °C
CC(C)(C)NC(=O)Nc1cccc(Nc2ncnc3[nH]cc(C(=O)c4ccccc4)c23)c1 |  |  | 185 to 187 °C
CC(=O)Nc1cccc(Nc2ncnc3[nH]cc(C(=O)c4ccccc4C)c23)c1 |  |  | > 300 °C
CC(=O)NCCC(=O)Nc1cccc(Nc2ncnc3[nH]cc(C(=O)c4ccccc4)c23)c1 [3-acetamido-N-(3-((5-benzoyl-7H-pyrrolo[2,3-d]pyrimidin-4-yl)amino)phenyl)propanamide] | 264 nM | 1340 nM | 
CC(=O)Nc1cccc(Nc2ncnc3[nH]cc(C(=O)c4cccc(F)c4)c23)c1 |  |  | > 300 °C
NC(=O)CCC(=O)Nc1cccc(Nc2ncnc3[nH]cc(C(=O)c4ccccc4)c23)c1 [N-(3-{[5-(phenylcarbonyl)-7H-pyrrolo[2,3-d]pyrimidin-4-yl]amino}phenyl)butanediamide] | 1210 nM | 876 nM | 
O=C(NCC1CCCCC1)Nc1cccc(Nc2ncnc3[nH]cc(C(=O)c4ccccc4)c23)c1 |  |  | 180 to 182 °C
CC(C)(C)OC(=O)Nc1ccc(Nc2ncnc3[nH]cc(C(=O)c4ccccc4)c23)cc1 |  |  | 274 to 280 °C
